Where two headings read alike, the source gives them in different places.
Assays:
[1] = MTT assay, inhibition of cell proliferation; conditions: tested at 0.01, 0.1, 1 and 10 μg/ml; FIG. 3
[2] = test system: MO4 mouse fibrosarcoma cells; assay: SRB assay, inhibition of cell proliferation; type: cell-based; conditions: tested at 0.01, 0.1, 1 and 10 μg/ml, FIG. 2
Procedure: The sulforhodamine B (SRB) assay is used for cell density determination, and is based on the measurement of cellular protein content (“biomass”)^12,13. The method has been optimized for the screening of compounds for growth effects on adherent cells in a 96-well format. After an incubation period with the compound of the invention, cell monolayers (MO4 mouse fibrosarcoma cells) are fixed with 50% (wt/vol) trichloroacetic acid for 1 hour and stained with SRB for 30 min, after which the excess dye is removed by washing repeatedly with 1% (vol/vol) […]. The protein-bound dye is dissolved in 10 mM Tris base solution for OD determination at 570 nm using a microplate reader. […] The method allows to test a large number of samples within a few days, and is a quantitative assay for growth inhibition by microtubule inhibitors.

HDAC6 = molecular target: T1, HDAC6 (Homo sapiens, UniProt Q9UBN7); assay: biochemical; conditions: for inhibition at 10 µM: read-out: % inhibition HDAC6
T1 sequence (Q9UBN7 1-1215): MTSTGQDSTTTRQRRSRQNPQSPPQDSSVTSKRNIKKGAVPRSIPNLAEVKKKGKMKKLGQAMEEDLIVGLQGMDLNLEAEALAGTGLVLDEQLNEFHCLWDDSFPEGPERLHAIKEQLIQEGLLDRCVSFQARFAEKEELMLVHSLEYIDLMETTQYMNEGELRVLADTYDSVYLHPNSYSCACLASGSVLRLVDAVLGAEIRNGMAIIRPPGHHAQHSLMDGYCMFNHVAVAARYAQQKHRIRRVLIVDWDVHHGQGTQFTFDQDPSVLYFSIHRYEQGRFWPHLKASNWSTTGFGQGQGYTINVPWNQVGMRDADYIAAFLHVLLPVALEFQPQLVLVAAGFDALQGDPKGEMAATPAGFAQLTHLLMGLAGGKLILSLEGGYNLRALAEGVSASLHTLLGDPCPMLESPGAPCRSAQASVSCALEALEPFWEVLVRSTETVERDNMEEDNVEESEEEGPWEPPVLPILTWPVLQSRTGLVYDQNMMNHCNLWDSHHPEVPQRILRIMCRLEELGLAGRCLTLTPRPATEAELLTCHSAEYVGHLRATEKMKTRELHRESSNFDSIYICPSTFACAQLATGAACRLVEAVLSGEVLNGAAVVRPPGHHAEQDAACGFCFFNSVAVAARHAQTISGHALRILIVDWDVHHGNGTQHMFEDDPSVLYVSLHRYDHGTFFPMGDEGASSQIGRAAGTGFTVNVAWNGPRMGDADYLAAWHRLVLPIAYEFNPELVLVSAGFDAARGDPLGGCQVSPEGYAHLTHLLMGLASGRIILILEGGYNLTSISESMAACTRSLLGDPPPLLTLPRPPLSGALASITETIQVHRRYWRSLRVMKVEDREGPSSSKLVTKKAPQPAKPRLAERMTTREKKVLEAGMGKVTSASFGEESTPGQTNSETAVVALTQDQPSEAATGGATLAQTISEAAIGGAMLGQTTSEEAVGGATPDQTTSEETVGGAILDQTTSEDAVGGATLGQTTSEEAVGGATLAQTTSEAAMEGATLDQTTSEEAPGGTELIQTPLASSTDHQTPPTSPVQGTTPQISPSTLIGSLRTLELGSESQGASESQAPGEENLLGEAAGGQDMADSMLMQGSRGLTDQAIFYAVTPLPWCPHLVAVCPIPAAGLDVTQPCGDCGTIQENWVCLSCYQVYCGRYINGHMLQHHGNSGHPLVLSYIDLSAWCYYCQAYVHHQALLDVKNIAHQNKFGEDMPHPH

HDAC1 = HDAC1 (Homo sapiens, UniProt Q13547); assay: HDAC1 inhibitory activity (in vitro pharmacology); type: biochemical; conditions: for inhibition at 10 µM: read-out: % inhibition HDAC1
[3] = test system: MDA MB 231 human mammary adenocarcinoma cells; assay: Collagen invasion assay; type: cell-based; conditions: for inhibition of invasion of cells into collagen type I gel: 24 hours, FIG. 4
Text: Tissue invasion requires infiltration into an extracellular matrix (ECM) dominated by networks of collagen type I. The invasion model consists of native, acid-extracted rat tail collagen type I containing nonhelical telopeptides situated at the N- and C-terminal ends. These telopeptides play an important role in intermolecular covalent cross-links necessary for a gel architecture presenting itself as a structural barrier to cancer cell traffic. […] The collagen type I solution was gently poured into the wells of a 6-well plate. The experimental set-up was placed at 37° C. in a humidified atmosphere with 10% CO2 in air for at least 1 h. […] Invasion is calculated as the percentage of invading cells per high powered field and is expressed as the mean and standard deviation.
Compound 7c (10 μg/ml) and paclitaxel (1 μg/ml) were tested in the assay. As a control, cells in medium without additional compounds was used. The effect of the solvent of compound 7c (1% DMSO) was measured as well.

HDAC4 = HDAC4 (Homo sapiens, UniProt P56524); assay: HDAC4 inhibition (selectivity); type: biochemical
HDAC8 = molecular target: T2, HDAC8 (Homo sapiens, UniProt Q9BY41); assay: HDAC8 inhibition (selectivity); type: biochemical
T2 sequence (Q9BY41 1-377): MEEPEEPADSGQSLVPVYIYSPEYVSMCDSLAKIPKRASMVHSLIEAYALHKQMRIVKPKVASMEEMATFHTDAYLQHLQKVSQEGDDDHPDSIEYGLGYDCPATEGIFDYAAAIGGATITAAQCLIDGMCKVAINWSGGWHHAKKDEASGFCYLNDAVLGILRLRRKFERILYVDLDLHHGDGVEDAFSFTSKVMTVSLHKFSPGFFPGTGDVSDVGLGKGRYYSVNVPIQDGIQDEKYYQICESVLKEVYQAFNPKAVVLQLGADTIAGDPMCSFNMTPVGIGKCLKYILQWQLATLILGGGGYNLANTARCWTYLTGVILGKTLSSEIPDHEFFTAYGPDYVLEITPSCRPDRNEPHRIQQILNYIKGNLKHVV

HDAC11 = molecular target: T3, HDAC11 (Homo sapiens, UniProt Q96DB2); assay: HDAC11 inhibition (selectivity); type: biochemical; conditions: for HDAC 11 inhibitory effect: no IC50 values could be obtained
T3 sequence (Q96DB2 1-347): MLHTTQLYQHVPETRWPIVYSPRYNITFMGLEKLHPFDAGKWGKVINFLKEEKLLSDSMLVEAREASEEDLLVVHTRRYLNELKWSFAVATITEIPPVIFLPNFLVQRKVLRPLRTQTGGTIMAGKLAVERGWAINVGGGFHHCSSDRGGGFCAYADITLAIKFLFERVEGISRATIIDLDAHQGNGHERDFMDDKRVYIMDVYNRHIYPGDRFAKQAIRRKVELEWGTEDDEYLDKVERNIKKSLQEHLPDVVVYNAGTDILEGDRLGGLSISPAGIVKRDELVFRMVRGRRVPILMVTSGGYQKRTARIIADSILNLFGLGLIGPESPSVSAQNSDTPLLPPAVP

[4] = read-out: IC50 values for HDAC6 inhibition, Table 3 and text

Sequence of HDAC4 (P56524 whole entry, species assumed): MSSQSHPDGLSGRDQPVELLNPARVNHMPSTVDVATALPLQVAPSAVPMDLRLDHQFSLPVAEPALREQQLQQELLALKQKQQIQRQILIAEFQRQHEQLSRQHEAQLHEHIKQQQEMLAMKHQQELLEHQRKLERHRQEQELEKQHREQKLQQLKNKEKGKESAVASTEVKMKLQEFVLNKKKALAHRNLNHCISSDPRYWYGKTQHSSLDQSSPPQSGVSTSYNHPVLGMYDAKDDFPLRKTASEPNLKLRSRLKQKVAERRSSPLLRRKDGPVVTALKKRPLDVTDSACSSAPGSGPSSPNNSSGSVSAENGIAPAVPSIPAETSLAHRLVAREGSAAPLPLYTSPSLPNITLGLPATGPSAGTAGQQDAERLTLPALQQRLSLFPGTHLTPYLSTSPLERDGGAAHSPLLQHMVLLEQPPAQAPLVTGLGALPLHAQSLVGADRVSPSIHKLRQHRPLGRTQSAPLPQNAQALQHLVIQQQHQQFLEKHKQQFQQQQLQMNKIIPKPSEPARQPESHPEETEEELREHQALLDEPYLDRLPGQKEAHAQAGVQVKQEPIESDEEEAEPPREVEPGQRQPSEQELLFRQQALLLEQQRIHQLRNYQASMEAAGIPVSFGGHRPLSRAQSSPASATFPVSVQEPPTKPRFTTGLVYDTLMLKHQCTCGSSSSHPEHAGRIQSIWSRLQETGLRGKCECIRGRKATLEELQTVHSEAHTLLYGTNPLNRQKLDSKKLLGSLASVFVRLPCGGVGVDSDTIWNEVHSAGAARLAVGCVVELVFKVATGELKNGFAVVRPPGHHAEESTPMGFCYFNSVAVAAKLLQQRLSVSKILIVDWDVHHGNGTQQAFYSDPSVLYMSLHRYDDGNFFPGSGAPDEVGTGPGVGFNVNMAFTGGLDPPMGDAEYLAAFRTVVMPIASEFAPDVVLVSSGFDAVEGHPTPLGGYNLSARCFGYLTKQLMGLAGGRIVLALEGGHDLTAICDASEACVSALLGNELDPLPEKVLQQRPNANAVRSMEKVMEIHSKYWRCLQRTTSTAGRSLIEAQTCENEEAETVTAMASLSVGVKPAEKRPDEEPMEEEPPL
Sequence of HDAC1 (Q13547 whole entry, species assumed): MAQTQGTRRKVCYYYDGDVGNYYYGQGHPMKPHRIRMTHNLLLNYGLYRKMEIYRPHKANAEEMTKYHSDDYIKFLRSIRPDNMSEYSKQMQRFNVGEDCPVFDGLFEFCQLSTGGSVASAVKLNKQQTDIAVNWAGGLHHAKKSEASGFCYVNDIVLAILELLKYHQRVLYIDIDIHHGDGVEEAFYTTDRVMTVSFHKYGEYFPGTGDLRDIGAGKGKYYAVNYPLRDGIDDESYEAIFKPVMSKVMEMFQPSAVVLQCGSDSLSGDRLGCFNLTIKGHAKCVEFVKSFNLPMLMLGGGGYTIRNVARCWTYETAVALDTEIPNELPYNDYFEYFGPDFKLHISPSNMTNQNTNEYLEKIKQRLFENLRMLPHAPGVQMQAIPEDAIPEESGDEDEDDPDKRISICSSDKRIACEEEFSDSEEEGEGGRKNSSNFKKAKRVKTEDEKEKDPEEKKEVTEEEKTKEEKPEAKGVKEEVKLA

Structure (SMILES)	inhibition of cell proliferation, MTT assay [1]	inhibition of cell proliferation, SRB assay [2]	IC50 (HDAC6) [µM]	inhibition at 10 µM (HDAC6) [%]	inhibition at 10 µM (HDAC1) [%]	IC50 (HDAC4) [µM]	IC50 (HDAC8) [µM]	HDAC6 versus HDAC8 selectivity (HDAC6) [fold]	IC50 (HDAC6; read-out: HDAC6 IC50, Table 4) [µM]	IC50 (HDAC6; [4]) [µM]	IC50 (HDAC1) [µM]	also measured
O=C(NO)c1ccc(Cn2c3c(c4ccccc42)CSCC3)cc1 [Compound 7a, N-(4-Hydroxycarbamoylbenzyl)-1,2,4,9-tetrahydro-3-thia-9-azafluorene]	inhibition of cell proliferation	inhibit cell proliferation	0.015	99	26	–	–	–	–	–	–	inhibition of cell proliferation, SRB assay ([2]; listed as 7A): inhibition of cell proliferation
O=C(NO)c1ccc(Cn2c3c(c4cc(F)ccc42)CSCC3)cc1 [Compound 7c, N-(4-Hydroxycarbamoylbenzyl)-6-fluoro-1,2,4,9-tetrahydro-3-thia-9-azafluorene]	inhibition of cell proliferation	inhibit cell proliferation	0.022	99	17	1.5	2.8	127	0.022	0.022	21	inhibition of cell proliferation, SRB assay ([2]; listed as 7C): inhibition of cell proliferation; inhibition of invasion of cells into collagen type I gel ([3]; 10 μg/ml, compared to solvent control (1% DMSO)): inhibits invasion; inhibition of invasion of cells into collagen type I gel ([3]; 10 μg/ml, compared to solvent control (1% DMSO), listed as 7C): inhibition of invasion; histology of invasion ([3]; after 14 days): confirmed inhibition of invasion; IC50 (HDAC11): 9.7 µM
O=C(NO)c1ccc(Cn2c3c(c4ccccc42)CS(=O)(=O)CC3)cc1 [Compound 10a, N-(4-Hydroxycarbamoylbenzyl)-1,2,4,9-tetrahydro-3-thia-9-azafluorene-3,3-dioxide]	–	–	0.0019	99	51	1.6	1.7	895	0.0019	0.0019	11	HDAC6 versus HDAC4 selectivity (HDAC6): 842 fold; selectivity against HDAC1 (HDAC6 vs HDAC1) (HDAC6): 5789 fold; Selectivity = IC50 (HDAC1)/IC50 (HDAC6) (HDAC6; Table 5): 5789; IC50 (HDAC6; read-out: HDAC6 IC50, Table 5): 0.0019 µM; HDAC 11 inhibitory effect (HDAC11): very low; IC50 (HDAC1; read-out: HDAC1 IC50, Table 5): 11 µM
COc1cc(C(=O)NO)ccc1Cn1c2c(c3ccccc31)CS(=O)(=O)CC2 [Compound 10b]	–	–	2	73	2	–	–	–	–	–	–	–
O=C(NO)c1ccc(Cn2c3c(c4cc(F)ccc42)CS(=O)(=O)CC3)cc1 [Compound 10c, N-(4-Hydroxycarbamoylbenzyl)-6-fluoro-1,2,4,9-tetrahydro-3-thia-9-azafluorene-3,3-dioxide]	–	–	0.0037	99	53	1.9	0.93	251	0.0037	0.0037	12	HDAC6 versus HDAC4 selectivity (HDAC6): 513 fold; selectivity against HDAC1 (HDAC6 vs HDAC1) (HDAC6): 3243 fold; Selectivity = IC50 (HDAC1)/IC50 (HDAC6) (HDAC6; Table 5): 3243; IC50 (HDAC6; read-out: HDAC6 IC50, Table 5): 0.0037 µM; HDAC 11 inhibitory effect (HDAC11): very low; IC50 (HDAC1; read-out: HDAC1 IC50, Table 5): 12 µM
COc1cc(C(=O)NO)ccc1Cn1c2c(c3cc(F)ccc31)CS(=O)(=O)CC2 [Compound 10d]	–	–	1.3	75	8	–	–	–	–	–	–	–
CC(=O)O[C@H]1C(=O)[C@@]2(C)[C@H]([C@H](OC(=O)c3ccccc3)[C@]3(O)C[C@H](OC(=O)[C@H](O)[C@@H](NC(=O)c4ccccc4)c4ccccc4)C(C)=C1C3(C)C)[C@]1(OC(C)=O)CO[C@@H]1C[C@@H]2O [Paclitaxel, reference compound]	inhibition of cell proliferation	inhibition of cell proliferation	–	–	–	–	–	–	–	–	–	inhibition of invasion of cells into collagen type I gel ([3]; 1 μg/ml): inhibition of invasion

— patent US9586973B2, “HDAC6 inhibitors and uses thereof” (Universiteit Gent, priority 2013, dated 2017)
